Data taken from the NIST ThermoML archive (doi:10.1021/je050183a).
Numbers after ± are expanded uncertainties.

Experiments:
[1] = refractive index (Na D-line) (dimensionless); xn = mol fraction of the nth substance listed; conditions: 298.15 K, 101 kPa, Liquid, Standard Abbe refractometry
[2] = xn = mol fraction of the nth substance listed; conditions: 101 kPa, Liquid; for viscosity: Capillary tube (Ostwald / Ubbelohde) method; for speed of sound: Linear variable-path acoustic interferometer; for mass density: Pycnometric method

CC1OC(C)OC(C)O1 (stereo not drawn) [2,4,6-trimethyl-1,3,5-trioxane] + CCOC(=O)OCC
[1]
Conditions	refractive index
x1 = 0.0215	1.3835 ± 0.0008
x1 = 0.0425	1.384 ± 0.0008
x1 = 0.0615	1.3844 ± 0.0008
x1 = 0.0816	1.3848 ± 0.0008
x1 = 0.1036	1.3853 ± 0.0008
x1 = 0.1911	1.3873 ± 0.0008
x1 = 0.317	1.3901 ± 0.0008
x1 = 0.4272	1.3926 ± 0.0008
x1 = 0.5162	1.3945 ± 0.0008
x1 = 0.608	1.3963 ± 0.0008
x1 = 0.7032	1.3982 ± 0.0008
x1 = 0.7984	1.3999 ± 0.0008
x1 = 0.8957	1.4015 ± 0.0008
x1 = 1	1.4029 ± 0.0008

[2]
Conditions	mass density, 288.15 K [kg/m3]	mass density, 298.15 K [kg/m3]	speed of sound, 288.15 K [m/s]	speed of sound, 298.15 K [m/s]	viscosity, 288.15 K [mPa·s]	viscosity, 298.15 K [mPa·s]
x1 = 0.0215	980.99 ± 1.3	969.57 ± 1.3	1224 ± 2.7	1173.8 ± 2.7	0.877 ± 0.012	0.756 ± 0.01
x1 = 0.0425	981.54 ± 1.3	969.99 ± 1.3	1222.6 ± 2.7	1174.2 ± 2.7	0.885 ± 0.012	0.763 ± 0.01
x1 = 0.0615	982.03 ± 1.3	970.36 ± 1.3	1221.4 ± 2.7	1174.5 ± 2.7	0.892 ± 0.012	0.768 ± 0.01
x1 = 0.0816	982.54 ± 1.3	970.76 ± 1.3	1220.3 ± 2.7	1174.8 ± 2.6	0.899 ± 0.012	0.774 ± 0.01
x1 = 0.1036	983.08 ± 1.3	971.19 ± 1.3	1219.1 ± 2.7	1175 ± 2.6	0.906 ± 0.012	0.779 ± 0.01
x1 = 0.1911	985.12 ± 1.4	972.92 ± 1.4	1215.7 ± 2.7	1175.6 ± 2.6	0.931 ± 0.012	0.798 ± 0.011
x1 = 0.317	987.74 ± 1.4	975.41 ± 1.4	1213.4 ± 2.7	1175.3 ± 2.6	0.959 ± 0.013	0.819 ± 0.011
x1 = 0.4272	989.8 ± 1.4	977.57 ± 1.4	1213.2 ± 2.7	1174.4 ± 2.6	0.985 ± 0.013	0.836 ± 0.011
x1 = 0.5162	991.35 ± 1.4	979.28 ± 1.4	1213.8 ± 2.7	1173.5 ± 2.6	1.011 ± 0.013	0.854 ± 0.011
x1 = 0.608	992.87 ± 1.4	981 ± 1.3	1214.8 ± 2.7	1172.6 ± 2.6	1.047 ± 0.014	0.878 ± 0.012
x1 = 0.7032	994.41 ± 1.3	982.74 ± 1.3	1215.7 ± 2.7	1171.9 ± 2.6	1.098 ± 0.014	0.913 ± 0.012
x1 = 0.7984	995.94 ± 1.3	984.41 ± 1.3	1216.2 ± 2.7	1171.5 ± 2.6	1.167 ± 0.015	0.962 ± 0.013
x1 = 0.8957	997.54 ± 1.4	986.04 ± 1.3	1216.7 ± 2.7	1171.8 ± 2.6	1.26 ± 0.017	1.028 ± 0.014
x1 = 1	999.69 ± 1.3	988.35 ± 1.3	1217.7 ± 2.7	1174.5 ± 2.6	1.374 ± 0.018	1.107 ± 0.015
